Results reported in patent publication US20130203649A1, “INHIBITORS OF TLR SIGNALING BY TARGETING TIR DOMAIN INTERFACES” (UNIVERSITY OF MARYLAND, BALTIMORE, priority 2012, published 2013).
No end group written: not given here.

Experiments:
TLR4 = test: LPS-induced STAT1-Y701 phosphorylation in macrophages (immunoblotting); assay type: cell-based, mouse; conditions: 2 h after LPS
TLR4/MyD88 = test: LPS-induced TLR4/MyD88 coimmunoprecipitation in mouse peritoneal macrophages; assay type: cell-based; conditions: 20 μM peptide 30 min before LPS 100 ng/ml
Procedure: FIG. 9. TM4, TM6, and TR6 block adapter recruitment to TLR4. (A) A total of 6×10^5 HEK293T cells was transfected with 1 μg pcDNA3.1-mTLR4-Cer and pEF-BOS-mTRAM-HA. Twenty-four hours posttransfection, the cells were treated with 20 μM of each peptide for 1 h. Cell lysates were immunoprecipitated with anti-GFP Ab and blotted with anti-HA-HRP. (B) A total of 2×10^6 mouse peritoneal macrophages was pretreated with 20 μM of each peptide for 30 min prior to stimulation with 100 ng/ml LPS. Cell extracts were obtained 30 min after LPS treatment, immunoprecipitated with goat anti-TLR4 Ab, and blotted with rabbit anti-MyD88 or anti-TLR4 Ab. Data are representative of three independent experiments.
HEK293T cells were transfected with indicated plasmids using Superfect Transfection Reagent (Qiagen). […] Protein was quantified using Bio-Rad protein quantification kit. Equal amount of protein was loaded and analyzed by 10% SDS-PAGE and immunoblotting. The cell extracts containing equal amount of protein were incubated with 1 μg Ab for 2 h, followed by 4-h incubation with 25 μl protein G agarose beads (Roche); the beads were then washed four times with lysis buffer, boiled in […] sample loading buffer, and analyzed by immunoblotting. […]

C57BL/6J mice = test: Survival after lethal LPS challenge in C57BL/6J mice; assay type: in vivo, mouse; conditions: LPS 17.5 μg/g i.p.; peptide 10 nmol/g i.p. 1 h before
Procedure: FIG. 10. […] (A-E) C57BL/6J mice were injected i.p. with purified Escherichia coli K235 LPS (1 μg/g) or PBS. Peptides (10 nmol/g of animal weight) were injected i.p. (A, B, D, E) or i.v. (C) 1 h before (A, B, and C) or 30 min after (D, E) i.p. injection of LPS. Data in panels A and D show plasma IL-6 and TNF-α levels measured 2 h after LPS challenge. Peptide TM8/9 was used as a non-inhibitory control peptide. Data represent the means±s.e.m. for 6-12 blood samples obtained in at least three independent experiments. *p<0.01. (F, G) C57BL/6J mice were challenged i.p. with a lethal LPS dose (17.5 μg/g). Peptides (10 nmol/g) were injected i.p. 1 h before LPS challenge. […] The statistical significance of changes in mortality and survival time was determined by the Mantel Cox log-rank test using GraphPad Prism software (Version 5.04). *p<0.01.
Eight-week-old C57BL/6J mice were injected with 1 or 17.5 μg/g animal weight of E. coli K235 LPS i.p. Peptides reconstituted in PBS were administered i.p. or i.v. Control groups received equivalent volume of solvent (PBS). The blood samples were collected 1, 2, 4, and 8 h, or 2, 8, and 24 h after LPS challenge. The plasma samples were obtained and kept frozen until TNF-α and IL-6 were measured by ELISA. Survival of animals was monitored every 6-16 h after LPS challenge. All animal experiments were carried out with institutional approval.
We next studied whether inhibitory peptides protect mice from a lethal LPS challenge. TR6, a previously described inhibitory peptide derived from the third helical region of TRAP (30), was also included in this study as an additional control. C57BL/6J mice were injected i.p. with 17.5 μg/g LPS. This dose induced 100% mortality in the control group (FIG. 10F). […] The peptide-treated survivors appeared active and healthy at the time the experiments were terminated, 7 d after injection of LPS.

Sequence	LPS-induced STAT1-Y701 phosphorylation (TLR4)	LPS-induced TLR4/MyD88 association (TLR4/MyD88)	Survival after lethal LPS challenge (C57BL/6J mice)
RQIKIWFQNRRMKWKKCLQDAIDHSGFT [TF5]	inhibit		
RQIKIWFQNRRMKWKKPGFLRDPWCKYQML [TR6]		efficiently prevented	improved animal survival comparably to TM6
